The record followed here is patent US9265253B2, “Use of macrocyclic picolinamides as fungicides” (DOW AGROSCIENCES LLC, priority 2013, dated 2016).

Like-named read-outs stand apart in the source and are kept apart here.

Holding throughout (type): in vivo
Test [1] concerns Mycosphaerella graminicola; Anamorph: Septoria tritici. The experiment in a line: Leaf Blotch of Wheat (SEPTTR) disease control. Particulars: Zymoseptoria tritici. The gist of the method:
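Yuma wheat, 1st leaf stage; spray to run-off, acetone + 9 vol water/110 ppm Triton X-100; S. tritici spores pre- or post-treatment; dew chamber 100% RH, then greenhouse 20° C. Read: % severity vs untreated → % control.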

Test [2] has as its system Puccinia triticina; Synonym: Puccinia recondite f. Sp. Tritici. Nature of the test: Wheat Brown Rust (PUCCRT) disease control. The note with it: Puccinia triticina, topical. A digest of the protocol: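 Brown rust on first-leaf Yuma wheat: spore inoculation before or after spray application (acetone/Triton X-100 solution, or EC with Trycol in track spray), overnight 100% RH at 22 °C, disease developed at 24 °C. Severity scored 0–100% and converted to percent control against untreated.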

For test [3], the system named is Phakopsora pachyrhizi. The experiment in a line: Asian Soybean Rust (PHAKPA) disease control. Particulars: Phakopsora pachyrhizi, topical. On the procedure: Technical grades of materials were dissolved in acetone, which were then mixed with nine volumes of water containing 0.011% Tween 20. The fungicide solutions were applied onto soybean seedlings using an automated booth sprayer to run-off. All sprayed plants were allowed to air dry prior to further handling.
Soybean plants (variety Williams 82) were grown in soil-less Metro mix, with one plant per pot. Two weeks old seedlings were used for testing. Plants were inoculated either 3 days prior to or 1 day after fungicide treatments. Plants were incubated for 24 h in a dark dew room at 22° C. and 100% RH then transferred to a growth room at 23° C. for disease to develop. Disease severity was assessed on the sprayed leaves.

Where [4] appears, read: 24 h, 1 Day Protectant, rate 100 ppm, read-out: SEPTTR 1 DP disease control.
Setting [5] is: 24 h, 1 Day Protectant, rate 121.5 g/H, read-out: SEPTTR 1 DP disease control.
[6] abbreviates: 72 h, 3 Day Curative, rate 100 ppm, read-out: SEPTTR 3 DC disease control.
Setting [7] is: 72 h, 3 Day Curative, rate 121.5 g/H, read-out: SEPTTR 3 DC disease control.
Where [8] appears, read: 24 h, 1 Day Protectant, rate 100 ppm, read-out: PUCCRT 1 DP disease control.
The mark [9] stands for this setting: 24 h, 1 Day Protectant, rate 121.5 g/H, read-out: PUCCRT 1 DP disease control.
The mark [10] stands for this setting: 72 h, 3 Day Curative, rate 100 ppm, read-out: PUCCRT 3 DC disease control.
Setting [11] is: 72 h, 3 Day Curative, rate 121.5 g/H, read-out: PUCCRT 3 DC disease control.
[12] abbreviates: 24 h, 1 Day Protectant, read-out: Disease Control PHAKPA 1DP.
The mark [13] stands for this setting: 72 h, 3 Day Curative, read-out: Disease Control PHAKPA 3DC.

Regarding `CCOCC(=O)OCOc1c(OC)ccnc1C(=O)N[C@H]1CCC[C@H](CCOC)[C@@H](OCC(C)C)[C@H](C)OC1=O` [Compound F187], the pest or weed control at 100 ppm in test [1] (setting [4]), in test [1] (setting [6]), in test [2] (setting [8]) and in test [2] (setting [10]) was 80 to 100% each time. Besides, the pest or weed control at 121.5 g/ha in test [1] (setting [5]), in test [1] (setting [7]), in test [2] (setting [9]) and in test [2] (setting [11]) was 80 to 100% each time. Also, the pest or weed control at 25 ppm in test [3] (setting [12]) and in test [3] (setting [13]) was 80 to 100% in each case.

As to `COc1ccnc(C(=O)N[C@H]2CCC[C@H](CCC(C)C)[C@@H](OCC3CC3)[C@H](C)OC2=O)c1OCOC(C)=O` [Compound F91], the pest or weed control at 100 ppm in test [1] (setting [4]), in test [1] (setting [6]), in test [2] (setting [8]) and in test [2] (setting [10]) was 80 to 100% in each case. Besides, the pest or weed control at 121.5 g/ha in test [1] (setting [5]), in test [1] (setting [7]), in test [2] (setting [9]) and in test [2] (setting [11]) was 80 to 100% throughout. In addition, the pest or weed control at 25 ppm in test [3] (setting [12]) and in test [3] (setting [13]) was 80 to 100% in each case.

For `COc1ccnc(C(=O)N[C@H]2CCC[C@H](CCC(C)C)[C@@H](OCCCC(F)(F)F)[C@H](C)OC2=O)c1OCOC(C)=O` [Compound F93], the pest or weed control at 100 ppm in test [1] (setting [4]), in test [1] (setting [6]), in test [2] (setting [8]) and in test [2] (setting [10]) was 80 to 100% in each case. The pest or weed control at 121.5 g/ha was in the range of 80 to 100% in test [1] (setting [5]), 80 to 100% in test [1] (setting [7]), 80 to 100% in test [2] (setting [9]) and 0 to 80% in test [2] (setting [11]). The values for the pest or weed control at 25 ppm in test [3] (setting [12]) and in test [3] (setting [13]) were 80 to 100% and 0 to 80%, respectively.

For `COc1ccnc(C(=O)N[C@H]2CCC[C@H](C)[C@@H](Oc3ccccc3)[C@H](C)OC2=O)c1OCOC(=O)C(C)C` [Compound F155], the pest or weed control at 100 ppm in test [1] (setting [4]), in test [1] (setting [6]), in test [2] (setting [8]) and in test [2] (setting [10]) was 80 to 100% throughout. Also, the pest or weed control at 121.5 g/ha in test [1] (setting [5]), in test [1] (setting [7]), in test [2] (setting [9]) and in test [2] (setting [11]) was 80 to 100% in each case. For the same compound, the pest or weed control at 25 ppm in test [3] (setting [12]) and in test [3] (setting [13]) was 80 to 100% in each case.

For `COc1ccnc(C(=O)N[C@H]2CCC[C@H](CC3CCCC3)[C@@H](OC(=O)C(C)C)[C@H](C)OC2=O)c1OCOC(C)=O` [Compound F121], the pest or weed control at 100 ppm in test [1] (setting [4]), in test [1] (setting [6]), in test [2] (setting [8]) and in test [2] (setting [10]) was 80 to 100% each time. Moreover, the pest or weed control at 121.5 g/ha in test [1] (setting [5]), in test [1] (setting [7]), in test [2] (setting [9]) and in test [2] (setting [11]) was 80 to 100% in each case. Besides, the values for the pest or weed control at 25 ppm in test [3] (setting [12]) and in test [3] (setting [13]) were 80 to 100% and 0 to 80%, respectively.

Regarding `COCC[C@H]1CCC[C@H](NC(=O)c2nccc(OC)c2OCOC(C)=O)C(=O)O[C@@H](C)[C@@H]1OCC(C)C` [Compound F132], the pest or weed control at 100 ppm in test [1] (setting [4]), in test [1] (setting [6]), in test [2] (setting [8]) and in test [2] (setting [10]) was 80 to 100% in each case. The pest or weed control at 121.5 g/ha in test [1] (setting [5]), in test [1] (setting [7]), in test [2] (setting [9]) and in test [2] (setting [11]) was 80 to 100% each time. The pest or weed control at 25 ppm in test [3] (setting [12]) and in test [3] (setting [13]) was 80 to 100% in each case.

As for `COc1ccnc(C(=O)N[C@H]2CCC[C@H](C)[C@@H](Oc3ccccc3)[C@H](C)OC2=O)c1OC(C)=O` [Compound F76], the pest or weed control at 121.5 g/ha in test [1] (setting [5]), in test [1] (setting [7]), in test [2] (setting [9]) and in test [2] (setting [11]) was 80 to 100% throughout. The pest or weed control at 25 ppm in test [3] (setting [12]) and in test [3] (setting [13]) was 80 to 100% in each case.

In the case of `CCOCC(=O)OCOc1c(OC)ccnc1C(=O)N[C@H]1CCC[C@H](CCC(C)C)[C@@H](OCC2CC2)[C@H](C)OC1=O` [Compound F160], the pest or weed control at 100 ppm in test [1] (setting [4]), in test [1] (setting [6]), in test [2] (setting [8]) and in test [2] (setting [10]) was 80 to 100% each time. Further, the pest or weed control at 121.5 g/ha in test [1] (setting [5]), in test [1] (setting [7]), in test [2] (setting [9]) and in test [2] (setting [11]) was 80 to 100% throughout. Also, the pest or weed control at 25 ppm in test [3] (setting [12]) and in test [3] (setting [13]) was 80 to 100% in each case.

Take `COc1ccnc(C(=O)N[C@H]2CCC[C@H](CC(F)F)[C@@H](Oc3ccccc3)[C@H](C)OC2=O)c1O` [Compound F53]: the pest or weed control at 100 ppm was 80 to 100% in test [1] (setting [4]), 0 to 80% in test [1] (setting [6]), 80 to 100% in test [2] (setting [8]) and 80 to 100% in test [2] (setting [10]).

Take `CCOCC(=O)OCOc1c(OC)ccnc1C(=O)N[C@H]1CCC[C@H](CCOCC2CC2)[C@@H](OCC2CC2)[C@H](C)OC1=O` [Compound F191]: the pest or weed control at 100 ppm in test [1] (24 h, Wheat Leaf Blotch, 1 Day Protectant, rate 100 ppm (high volume application), read-out: Disease control SEPTTR 1 DP) fell in the range of 80 to 100%; in test [2] (24 h, Wheat Brown Rust, 1 Day Protectant, rate 100 ppm (high volume application), read-out: Disease control PUCCRT 1 DP), 80 to 100%; in test [2] (72 h, Wheat Brown Rust, 3 Day Curative, rate 100 ppm (high volume application), read-out: Disease control PUCCRT 3 DC), 80 to 100%. The pest or weed control at 121.5 g/ha was in the range of 0 to 80% in test [1] (24 h, Wheat Leaf Blotch, 1 Day Protectant, rate 121.5 g/H (low volume application), read-out: Disease control SEPTTR 1 DP); 0 to 80% in test [1] (72 h, Wheat Leaf Blotch, 3 Day Curative, rate 121.5 g/H (low volume application), read-out: Disease control SEPTTR 3 DC); 80 to 100% in test [2] (24 h, Wheat Brown Rust, 1 Day Protectant, rate 121.5 g/H (low volume application), read-out: Disease control PUCCRT 1 DP); 80 to 100% in test [2] (72 h, Wheat Brown Rust, 3 Day Curative, rate 121.5 g/H (low volume application), read-out: Disease control PUCCRT 3 DC).

Consider `COCCC(=O)Oc1c(OC)ccnc1C(=O)N[C@H]1CCC[C@H](CC2CCCC2)[C@@H](Oc2ccccc2)[C@H](C)OC1=O` [Compound F153], for which the pest or weed control at 100 ppm in test [1] (setting [4]), in test [1] (setting [6]), in test [2] (setting [8]) and in test [2] (setting [10]) was 80 to 100% throughout. Moreover, the pest or weed control at 121.5 g/ha in test [1] (setting [5]) fell in the range of 80 to 100%; in test [1] (setting [7]) it was 80 to 100%; in test [2] (setting [9]), 80 to 100%; in test [2] (setting [11]) it was 0 to 80%.

Turning to `COc1ccc(C[C@H]2CCC[C@H](NC(=O)c3nccc(OC)c3O)C(=O)O[C@@H](C)[C@@H]2Oc2ccccc2)cc1` [Compound F26], the pest or weed control at 100 ppm in test [1] (setting [4]) was 80 to 100%; in test [1] (setting [6]) it was 80 to 100%; in test [2] (setting [8]), 80 to 100%; in test [2] (setting [10]), 0 to 80%.

With `COCCO[C@@H]1[C@@H](Cc2ccccc2)CCC[C@H](NC(=O)c2nccc(OC)c2OCOC(C)=O)C(=O)O[C@H]1C` [Compound F112], the pest or weed control at 121.5 g/ha in test [1] (setting [5]), in test [1] (setting [7]), in test [2] (setting [9]) and in test [2] (setting [11]) was 80 to 100% each time.

`COc1ccnc(C(=O)N[C@H]2CCC[C@H](CCC(C)C)[C@@H](OCC3CC3)[C@H](C)OC2=O)c1O` [Compound F3]: the pest or weed control at 100 ppm in test [1] (setting [4]), in test [1] (setting [6]), in test [2] (setting [8]) and in test [2] (setting [10]) was 80 to 100% in each case.
